The record followed here is PubChem BioAssay AID504638 (National Center for Advancing Translational Sciences (NCATS), 2011).

For the data set, the system named is mouse liver microsomes, stability LC-MS/MS, 1 uM. Briefly: Inhibitors of HPGD: Mouse Liver Microsome Profiling. As to conditions: at 1 µM, stronger effect = higher value. (Liver microsomes are vesicles of endoplasmic reticulum, rich in cytochrome P450 enzymes.)

In general, half-life refers to the time in which the quantity being followed falls by half. On to `Cc1cccc(-n2cnc3cc(C(=O)N4CCCCC4)ccc32)c1`, for which the half-life is 9 min. As for `Cc1cc(-c2nnc3n2CCCCC3)c(C)n1-c1ccccc1`, the half-life was 8 min.
